The record followed here is article PMC6973020, “Quinoline‐Conjugated Ruthenacarboranes: Toward Hybrid Drugs with a Dual Mode of Action” (Chemmedchem, 2019).

For one experiment, the system named is B16 mouse melanoma. The experiment is described as follows: MTT cell viability assay, B16. Type of experiment: cell-based. The following applies: 72 h. An excerpt: (§1) Thus, care must be taken when comparing their biological activities with those of our previous studies, even with the same cell line, because the covalent vs. non‐covalent combination of drugs might imply different mechanisms of action in the cell.44 Here, we studied the in vitro activity of ruthenacarborane 3, i. e. free acid, and its 8‐hydroxyquinolyl (4) and 4‐{(7‐chloroquinolin‐4‐yl)oxy}butanol‐1‐yl (5) esters, against a panel of cancer cell lines (B16 mouse melanoma, A375 human skin melanoma, MCF‐7 human breast adenocarcinoma, LN229 human glioblastoma, U251 human glioma). Human fibroblast cell line MRC‐5, murine microglial cell line BV‐2 as well as peritoneal exudate cells (Mph), were chosen as models for non‐malignant cells. […] On the other side, we wanted to assess the reproducibility of the viability data, under either controlled (with BSA) or uncontrolled (without BSA) conditions, in two sets of independent assays. […] Cells were exposed to 3–5 for 72 h, after which cell viability was determined via 3‐(4,5‐dimethylthiazol‐2‐yl)‐2,5‐diphenyltetrazolium bromide (MTT) and crystal violet (CV) assays, in parallel (Table 2). Cisplatin was also tested as reference.
(§2) Preparation of drug solutions. […] Stock solution of cisplatin was prepared in DMF (10 mM) immediately before use. A stock solution of BSA in PBS was prepared at 1.28 mM concentration, and stored at 4 °C in the dark. […] Alternatively, 3 or 4 (DMSO stock solution) were added to the BSA solution in PBS, always with a 10 : 1 molar ratio of BSA to ruthenacarborane. The BSA−ruthenacarborane solutions were incubated 0.5–1 h at room temperature, then diluted with cell culture medium to the desired final concentrations. Final concentrations of 3 and 4 were the same as for the BSA‐free formulation. Final DMSO was 0.02–0.5 vol %.
(§3) Colorimetric assays for cellular viability. […] For counting the number of attached (viable) cells, cells were fixed with 4 % (w/v) paraformaldehyde for 10 min at room temperature, and subsequently stained for 15 min with […] crystal violet (CV) solution. Cells were then washed with tap water, dried in air, and the CV dye was dissolved in 33 % (w/v) acetic acid solution. For the detection of mitochondrial respiration, cells were cultivated in MTT staining solution (0.5 mg mL^−1) for approximately 1 h. The dye was then discarded, and the formed formazan (purple) was dissolved in DMSO. The absorbance was measured with an automated microplate reader at λmax 540 nm, with the reference λmax 670 nm. Untreated cells or cells treated only with BSA (control) were also measured, as reference for BSA‐free and BSA‐containing drug formulations, respectively. […] Cell viability is expressed as percentage (%) relative to control (untreated cultures).58 Experiments were run in three independent replicates. […]

Experiment [1] has as its system MCF‐7 human breast adenocarcinoma. The experiment is described as follows: Crystal violet (CV) cell viability assay, MCF‐7. Type of experiment: cell-based. The settings on record: 72 h.
Description: as §1, §2, §3

The subject of another experiment is MCF‐7 cells. The experiment is described as follows: DAPI staining, fluorescence microscopy, MCF‐7. Type of experiment: cell-based, human. The settings on record: MCF‐7, 20 μM, 72 h. The method, then:
Flow cytometry. For gaining better insights into the mechanisms of action of the ruthenium complexes, MCF‐7 and LN229 cells incubated with an IC50 dose of 3 or 4, were analyzed via flow cytometry. Several staining protocols were carried out in parallel, in independent experiments: i) AnnV/PI for the detection of apoptotic cell death, ii) AO for the detection of acidic vacuoles, iii) ApoStat for checking caspase activation, iv) CFSE for detecting interference with cellular proliferation, and v) DAPI for the detection of morphological signs of apoptosis. Untreated cells or cells treated only with BSA (control) were also measured, as reference for BSA‐free and BSA‐containing drug formulations, respectively. […] Channels FL1 (green emission), FL2 (orange emission) and/or FL3 (dark red emission) were used for fluorescence detection, according to the specific staining agent. Sideward Scatter (SSC) for MCF‐7 cells treated with 4 or BSA−4 was also analyzed, with respect to the control, for detection of shifts of cell granularity. […]
FCS, 2 mM L‐glutamine, 0.01% sodium pyruvate and antibiotics, at 37 °C in a humidified atmosphere with 5% CO2. […] Cells were counted and seeded in 96‐well plates and incubated overnight, as described above. […]
Staining Protocols for Flow Cytometric Analysis. […] Finally, cells were washed in PBS, resuspended in PBS (or AnnV‐binding buffer for AnnV/PI), and analysed. […]

A further experiment concerns LN229 cells. The experiment is described as follows: Wound healing assay, LN229. The format is cell-based, human. The settings on record: LN229, IC50 dose, 72 h.

With “closo ‐[3‐(η^6‐p‐Cymene)‐1‐(quinolin‐8‐yl‐acetate)‐3,1,2‐RuC2B9H10] [Compound 4]”, the IC50 came out at 20.4 ± 2.1 µM in the experiment with B16 mouse melanoma and 16.9 ± 1.1 µM in experiment [1]. For the same substance, in the experiment with MCF‐7 cells, the “morphological signs of apoptosis (DAPI)” value is “sparse morphological signs of apoptosis”. For the same substance, in the experiment on LN229 cells, the “cell motility (wound healing assay, in words)” value is reported as “inhibited motility”.
In the same order, the values of “closo‐ [Compound 3, closo‐ [3‐(η^6‐p‐Cymene)‐1‐(CH2COOH)‐3,1,2‐RuC2B9H10]]” are 19.4 ± 0.9 µM, 22.9 ± 1.4 µM, “sparse morphological signs of apoptosis” and “inhibited motility”.
